ChEMBL document CHEMBL5291721, “A preclinical secondary pharmacology resource illuminates target-adverse drug reaction associations of marketed drugs” (Nat Commun, 2023)

Experiments:
[1] = molecular target: T1, 5-hydroxytryptamine receptor 1A (Homo sapiens, UniProt P08908); format: functional, cell-based
T1 sequence (P08908 whole entry): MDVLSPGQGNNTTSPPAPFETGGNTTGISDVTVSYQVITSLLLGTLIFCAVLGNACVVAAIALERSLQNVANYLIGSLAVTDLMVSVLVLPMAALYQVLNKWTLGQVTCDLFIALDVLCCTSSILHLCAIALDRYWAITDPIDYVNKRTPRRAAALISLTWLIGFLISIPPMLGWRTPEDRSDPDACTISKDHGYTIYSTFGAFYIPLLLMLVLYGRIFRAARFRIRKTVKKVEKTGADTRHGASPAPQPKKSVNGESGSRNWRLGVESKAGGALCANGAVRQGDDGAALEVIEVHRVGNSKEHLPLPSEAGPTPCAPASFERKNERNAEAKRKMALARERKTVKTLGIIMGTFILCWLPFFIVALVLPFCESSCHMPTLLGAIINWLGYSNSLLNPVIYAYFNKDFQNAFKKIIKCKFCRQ

Vasopressin V2 receptor = Vasopressin V2 receptor (Homo sapiens, UniProt P30518)
Chain of Vasopressin V2 receptor (P30518 whole entry): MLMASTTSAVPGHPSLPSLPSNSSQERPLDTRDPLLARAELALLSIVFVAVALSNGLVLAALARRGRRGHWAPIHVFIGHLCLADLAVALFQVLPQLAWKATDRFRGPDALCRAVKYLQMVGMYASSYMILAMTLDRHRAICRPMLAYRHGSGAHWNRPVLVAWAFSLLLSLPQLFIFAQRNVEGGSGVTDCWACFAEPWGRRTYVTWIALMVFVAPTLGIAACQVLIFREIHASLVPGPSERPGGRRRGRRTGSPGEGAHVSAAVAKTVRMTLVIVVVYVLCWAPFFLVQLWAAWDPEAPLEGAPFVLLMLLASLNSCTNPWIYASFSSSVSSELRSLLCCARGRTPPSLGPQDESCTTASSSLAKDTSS

[2] = molecular target: T2, Equilibrative nucleoside transporter 1 (Homo sapiens, UniProt Q99808)
T2 sequence (Q99808 whole entry): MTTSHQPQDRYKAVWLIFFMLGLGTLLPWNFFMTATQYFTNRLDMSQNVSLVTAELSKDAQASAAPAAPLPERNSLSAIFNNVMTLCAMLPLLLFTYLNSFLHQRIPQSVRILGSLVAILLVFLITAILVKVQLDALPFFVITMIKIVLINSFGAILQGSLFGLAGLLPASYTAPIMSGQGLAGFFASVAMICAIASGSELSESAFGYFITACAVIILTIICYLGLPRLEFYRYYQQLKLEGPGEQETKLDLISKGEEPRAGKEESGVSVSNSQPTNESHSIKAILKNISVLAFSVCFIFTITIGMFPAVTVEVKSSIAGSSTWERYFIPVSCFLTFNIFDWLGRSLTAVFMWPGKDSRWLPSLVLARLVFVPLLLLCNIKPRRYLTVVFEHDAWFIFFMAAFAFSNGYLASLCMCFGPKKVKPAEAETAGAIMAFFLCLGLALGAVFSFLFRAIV

[3] = molecular target: 5-hydroxytryptamine receptor 2B (Homo sapiens, UniProt P41595); format: functional, cell-based
Chain of 5-hydroxytryptamine receptor 2B (P41595 whole entry): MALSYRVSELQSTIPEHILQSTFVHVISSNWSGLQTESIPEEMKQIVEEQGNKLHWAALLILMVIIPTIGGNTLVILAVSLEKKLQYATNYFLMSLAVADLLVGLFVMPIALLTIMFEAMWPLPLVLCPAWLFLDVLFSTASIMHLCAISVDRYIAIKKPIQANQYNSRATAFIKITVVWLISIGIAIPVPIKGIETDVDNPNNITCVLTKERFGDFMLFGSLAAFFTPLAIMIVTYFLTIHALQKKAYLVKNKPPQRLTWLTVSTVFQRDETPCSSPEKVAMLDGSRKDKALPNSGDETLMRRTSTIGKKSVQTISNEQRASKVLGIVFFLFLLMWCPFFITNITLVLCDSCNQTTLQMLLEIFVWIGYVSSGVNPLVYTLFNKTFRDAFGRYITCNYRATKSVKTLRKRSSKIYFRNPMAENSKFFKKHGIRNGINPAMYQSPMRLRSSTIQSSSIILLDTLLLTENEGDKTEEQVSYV

[4] = molecular target: T3, Amine oxidase [flavin-containing] A (Homo sapiens, UniProt P21397); format: functional
T3 sequence (P21397 whole entry): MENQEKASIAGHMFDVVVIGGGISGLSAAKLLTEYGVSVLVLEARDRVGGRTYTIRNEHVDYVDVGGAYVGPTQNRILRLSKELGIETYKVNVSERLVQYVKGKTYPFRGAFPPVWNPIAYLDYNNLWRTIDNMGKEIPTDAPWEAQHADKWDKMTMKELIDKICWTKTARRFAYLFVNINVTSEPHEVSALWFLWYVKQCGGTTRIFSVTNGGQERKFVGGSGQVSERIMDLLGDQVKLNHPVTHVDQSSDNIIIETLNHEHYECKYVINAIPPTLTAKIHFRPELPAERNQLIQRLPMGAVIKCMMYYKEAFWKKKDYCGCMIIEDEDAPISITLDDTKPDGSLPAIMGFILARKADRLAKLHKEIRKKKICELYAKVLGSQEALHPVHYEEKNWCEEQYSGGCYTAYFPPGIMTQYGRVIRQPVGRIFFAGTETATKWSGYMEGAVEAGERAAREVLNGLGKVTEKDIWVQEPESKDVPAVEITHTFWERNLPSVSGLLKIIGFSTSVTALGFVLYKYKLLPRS

[5] = molecular target: Sodium-dependent noradrenaline transporter (Homo sapiens, UniProt P23975)
Chain of Sodium-dependent noradrenaline transporter (P23975 whole entry): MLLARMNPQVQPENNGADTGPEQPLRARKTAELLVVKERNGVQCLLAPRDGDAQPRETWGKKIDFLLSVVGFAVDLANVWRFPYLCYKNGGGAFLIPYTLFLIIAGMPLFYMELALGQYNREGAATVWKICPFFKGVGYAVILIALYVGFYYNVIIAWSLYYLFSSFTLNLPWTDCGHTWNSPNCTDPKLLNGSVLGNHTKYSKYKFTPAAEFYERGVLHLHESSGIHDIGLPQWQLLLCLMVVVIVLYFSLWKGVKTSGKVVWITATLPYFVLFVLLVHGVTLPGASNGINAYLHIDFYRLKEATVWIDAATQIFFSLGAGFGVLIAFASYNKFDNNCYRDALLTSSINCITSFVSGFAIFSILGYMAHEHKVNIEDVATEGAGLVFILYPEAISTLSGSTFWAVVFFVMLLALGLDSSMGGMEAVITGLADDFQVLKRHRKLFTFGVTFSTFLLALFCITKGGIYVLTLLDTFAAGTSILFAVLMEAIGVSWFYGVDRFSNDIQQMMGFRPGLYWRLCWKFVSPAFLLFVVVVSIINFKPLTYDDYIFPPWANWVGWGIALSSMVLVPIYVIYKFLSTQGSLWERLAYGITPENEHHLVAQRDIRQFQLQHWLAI

Estrogen receptor = molecular target: T4, Estrogen receptor (Homo sapiens, UniProt P03372)
T4 sequence (P03372 whole entry): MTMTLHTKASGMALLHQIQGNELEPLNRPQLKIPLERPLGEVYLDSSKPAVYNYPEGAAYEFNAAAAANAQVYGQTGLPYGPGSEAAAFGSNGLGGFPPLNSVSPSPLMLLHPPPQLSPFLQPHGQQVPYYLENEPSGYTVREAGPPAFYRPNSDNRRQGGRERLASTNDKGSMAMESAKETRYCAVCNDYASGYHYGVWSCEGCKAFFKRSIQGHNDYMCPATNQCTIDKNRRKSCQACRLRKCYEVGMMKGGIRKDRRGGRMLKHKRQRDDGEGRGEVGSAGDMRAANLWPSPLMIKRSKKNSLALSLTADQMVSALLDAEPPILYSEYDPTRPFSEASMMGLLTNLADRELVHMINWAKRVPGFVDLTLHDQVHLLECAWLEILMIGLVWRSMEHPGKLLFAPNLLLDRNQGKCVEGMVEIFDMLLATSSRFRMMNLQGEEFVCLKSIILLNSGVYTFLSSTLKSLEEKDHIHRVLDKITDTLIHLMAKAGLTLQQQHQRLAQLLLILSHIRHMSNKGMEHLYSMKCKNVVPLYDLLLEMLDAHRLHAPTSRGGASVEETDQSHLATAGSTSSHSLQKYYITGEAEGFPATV

[6] = molecular target: T5, Alpha-2A adrenergic receptor (Homo sapiens, UniProt P08913); format: functional, cell-based
T5 sequence (P08913 whole entry): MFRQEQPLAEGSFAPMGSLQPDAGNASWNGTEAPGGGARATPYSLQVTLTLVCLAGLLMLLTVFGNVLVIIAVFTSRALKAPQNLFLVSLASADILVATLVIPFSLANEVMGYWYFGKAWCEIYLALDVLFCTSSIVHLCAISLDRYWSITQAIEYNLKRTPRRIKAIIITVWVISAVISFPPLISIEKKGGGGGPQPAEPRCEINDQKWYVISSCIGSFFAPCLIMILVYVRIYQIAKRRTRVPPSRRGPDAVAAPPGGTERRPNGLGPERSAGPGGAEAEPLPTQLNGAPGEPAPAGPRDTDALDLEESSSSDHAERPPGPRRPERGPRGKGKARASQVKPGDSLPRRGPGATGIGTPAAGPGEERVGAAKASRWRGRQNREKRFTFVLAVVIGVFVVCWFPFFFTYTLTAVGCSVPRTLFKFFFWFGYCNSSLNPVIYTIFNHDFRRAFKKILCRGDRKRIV

[7] = molecular target: Growth hormone secretagogue receptor type 1 (Homo sapiens, UniProt Q92847)
Chain of Growth hormone secretagogue receptor type 1 (Q92847 whole entry): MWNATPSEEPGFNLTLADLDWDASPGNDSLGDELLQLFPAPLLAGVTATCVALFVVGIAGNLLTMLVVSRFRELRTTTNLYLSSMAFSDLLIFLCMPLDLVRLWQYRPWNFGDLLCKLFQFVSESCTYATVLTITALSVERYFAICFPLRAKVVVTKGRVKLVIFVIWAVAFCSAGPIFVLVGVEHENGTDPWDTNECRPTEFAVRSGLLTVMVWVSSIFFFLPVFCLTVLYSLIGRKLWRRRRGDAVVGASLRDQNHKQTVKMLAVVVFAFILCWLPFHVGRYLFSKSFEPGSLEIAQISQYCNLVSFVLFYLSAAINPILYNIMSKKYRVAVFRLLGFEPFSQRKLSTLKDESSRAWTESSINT
Further: assay procedure not described here.

| Compound | AC50 [1] | AC50 (Vasopressin V2 receptor) | AC50 [2] | AC50 [3] | AC50 [4] | AC50 [5] | AC50 (Estrogen receptor) | AC50 [6] | AC50 [7] |
| --- | --- | --- | --- | --- | --- | --- | --- | --- | --- |
| CCN(CC)CCNC(=O)c1cc(Cl)c(N)cc1OC [METOCLOPRAMIDE] | > 10 µM | > 30 µM | > 30 µM | 4.3 µM | > 10 µM | > 10 µM | > 30 µM | > 10 µM | > 30 µM |
| O=C(O)c1cc(-c2ccc(F)cc2F)ccc1O [DIFLUNISAL] | > 10 µM | > 10 µM | > 10 µM | > 10 µM | > 10 µM | > 10 µM | > 10 µM | > 10 µM | > 10 µM |
| CCc1ccc(CCOc2ccc(CC3SC(=O)NC3=O)cc2)nc1 (stereo unspecified) [PIOGLITAZONE] | > 10 µM | > 30 µM | > 30 µM | > 10 µM | > 10 µM | > 30 µM | > 30 µM | > 10 µM | > 30 µM |
| CC(C)C(=O)Nc1ccc([N+](=O)[O-])c(C(F)(F)F)c1 [FLUTAMIDE] | > 10 µM | > 30 µM | > 10 µM | > 10 µM | > 30 µM | > 10 µM | > 10 µM | > 10 µM | > 30 µM |
| CN1C(=O)CC(C)(c2ccccc2)C1=O (stereo unspecified) [METHSUXIMIDE] | > 10 µM | > 10 µM | > 10 µM | > 10 µM | > 10 µM | > 10 µM | > 10 µM | > 10 µM | > 10 µM |
| NC(N)=Nc1nc(CSCCC(N)=NS(N)(=O)=O)cs1 [FAMOTIDINE] | > 10 µM | > 30 µM | > 30 µM | > 10 µM | 8.1 µM | > 10 µM | > 30 µM | > 10 µM | > 30 µM |
| CCCS(=O)(=O)Nc1ccc(F)c(C(=O)c2c[nH]c3ncc(-c4ccc(Cl)cc4)cc23)c1F [VEMURAFENIB] | > 30 µM | > 30 µM | > 30 µM | > 30 µM | > 30 µM | > 30 µM | > 30 µM | > 30 µM | > 30 µM |
| NC[C@H]1CC[C@H](C(=O)O)CC1 [TRANEXAMIC ACID] | > 10 µM | > 10 µM | > 10 µM | > 10 µM | > 10 µM | > 10 µM | > 10 µM | > 10 µM | > 10 µM |
| CCC[C@@H]1C[C@@H](C(=O)N[C@@H]([C@H]2O[C@H](SC)[C@H](O)[C@@H](O)[C@H]2O)[C@H](C)Cl)N(C)C1 [CLINDAMYCIN] | > 10 µM | > 30 µM | > 30 µM | > 10 µM | > 10 µM | > 10 µM | > 30 µM | > 10 µM | > 30 µM |
| OCCN1CCN(CCCN2c3ccccc3C=Cc3ccccc32)CC1 [OPIPRAMOL] | > 30 µM | > 30 µM | > 30 µM | > 30 µM | > 30 µM | > 30 µM | > 30 µM | > 30 µM | > 30 µM |
| NS(=O)(=O)c1cc2c(cc1Cl)NCNS2(=O)=O [HYDROCHLOROTHIAZIDE] | > 10 µM | > 30 µM | > 30 µM | > 10 µM | > 10 µM | > 10 µM | > 30 µM | > 10 µM | > 30 µM |
| NC(=O)c1cnccn1 [PYRAZINAMIDE] | > 30 µM | > 30 µM | > 30 µM | > 30 µM | > 30 µM | > 30 µM | > 30 µM | > 30 µM | > 30 µM |
| CS(=O)(=O)c1ccc([C@@H](O)[C@@H](CO)NC(=O)C(Cl)Cl)cc1 [THIAMPHENICOL] | > 30 µM | > 30 µM | > 30 µM | > 30 µM | > 30 µM | > 30 µM | > 30 µM | > 30 µM | > 30 µM |
| CC(C(=O)O)c1ccc(N2CC=CC2)c(Cl)c1 (stereo unspecified) [PIRPROFEN] | > 10 µM | > 30 µM | > 30 µM | > 10 µM | > 10 µM | > 10 µM | > 30 µM | > 10 µM | > 30 µM |
| Cc1cccc(C)c1OCC(C)N (stereo unspecified) [MEXILETINE] | > 30 µM | > 30 µM | > 30 µM | 8.5 µM | 18 µM | > 30 µM | > 30 µM | > 30 µM | > 30 µM |
| COC(=O)N[C@H](C(=O)N[C@@H](Cc1ccccc1)[C@@H](O)CN(Cc1ccc(-c2ccccn2)cc1)NC(=O)[C@@H](NC(=O)OC)C(C)(C)C)C(C)(C)C [ATAZANAVIR] | > 10 µM | > 30 µM | > 30 µM | > 10 µM | > 10 µM | > 30 µM | > 30 µM | > 10 µM | 10.6 µM |
| CO/N=C(\C(=O)N[C@@H]1C(=O)N2C(C(=O)[O-])=C(C[N+]3(C)CCCC3)CS[C@H]12)c1csc(N)n1 | > 300 µM | > 30 µM | > 300 µM | > 300 µM | > 300 µM | > 300 µM | > 30 µM | > 300 µM | > 300 µM |
| COC(=O)[C@@H]1CC2=CC(=O)CC[C@]2(C)[C@@]23O[C@@H]2C[C@@]2(C)[C@@H](CC[C@@]24CCC(=O)O4)[C@H]13 [EPLERENONE] | > 30 µM | > 30 µM | > 30 µM | > 30 µM | > 30 µM | > 30 µM | > 30 µM | > 30 µM | > 30 µM |
| O=C(CCCCCCC(=O)Nc1ccccc1)NO [VORINOSTAT] | > 30 µM | > 30 µM | > 30 µM | > 30 µM | > 30 µM | > 30 µM | > 30 µM | > 30 µM | > 30 µM |
